Data set [1] deals with T1, beta amyloid peptide 1–40 (Aβ40) (Homo sapiens, UniProt P05067).
T1 construct: beta amyloid peptide 1–40 (Aβ40); purchased Sigma-Aldrich Europe (Milan, Italy)
Briefly: Inhibition of Aβ40 self-aggregation (ThT fluorescence, 2% HFIP). The format is biochemical. The conditions noted are these: inhibitor 100 μM, Aβ40 30 μM. The text has this: As an additional proof of the potential of DAN in interfering with AD-related processes, we investigated the effects on the in vitro self-aggregation of beta amyloid peptide 1–40 (Aβ40) and Tau hexapeptide (306)VQIVYK(311) (PHF6). Aβ40 is used as an in vitro probe of the fibrillization process leading to amyloid fibrils and ultimately to senile plaques in AD [32], while PHF6 represents the highly proaggregating sequence of the repeated domain R3 of Tau protein, responsible of the formation of neurofibrillary tangles and other tauopathies in NDs. With this aim, we developed a fast screening method of Aβ40 aggregation using thioflavin T (ThT) as fluorescent probe and 2% 1,1,1,3,3,3-hexafluoro-2-propanol (HFIP) as aggregation enhancer. Regarding PHF6, we started from an already published methodology for the setup of an in-house method, with 2,2,2-trifluoroethanol (TFE) as the cosolvent. […] Quercetin was used as a standard reference for the inhibition of amyloid aggregation. The concentrations of inhibitors were 100 μM and 25 μM in Aβ40 and in PHF6 assay, respectively. […]
An already established assay was used in a 96-well plate procedure, using HFIP as aggregation enhancer. […] After addition of ThT, the fluorescence was read at 440/485 excitation/emission wavelength. […] Inhibition values were calculated by means of Prism.

The target in data set [2] is T2, human recombinant AChE (hAChE) (Homo sapiens, UniProt P22303).
T2 construct: purchased Sigma-Aldrich Europe (Milan, Italy)
T2 sequence (P22303 32-614): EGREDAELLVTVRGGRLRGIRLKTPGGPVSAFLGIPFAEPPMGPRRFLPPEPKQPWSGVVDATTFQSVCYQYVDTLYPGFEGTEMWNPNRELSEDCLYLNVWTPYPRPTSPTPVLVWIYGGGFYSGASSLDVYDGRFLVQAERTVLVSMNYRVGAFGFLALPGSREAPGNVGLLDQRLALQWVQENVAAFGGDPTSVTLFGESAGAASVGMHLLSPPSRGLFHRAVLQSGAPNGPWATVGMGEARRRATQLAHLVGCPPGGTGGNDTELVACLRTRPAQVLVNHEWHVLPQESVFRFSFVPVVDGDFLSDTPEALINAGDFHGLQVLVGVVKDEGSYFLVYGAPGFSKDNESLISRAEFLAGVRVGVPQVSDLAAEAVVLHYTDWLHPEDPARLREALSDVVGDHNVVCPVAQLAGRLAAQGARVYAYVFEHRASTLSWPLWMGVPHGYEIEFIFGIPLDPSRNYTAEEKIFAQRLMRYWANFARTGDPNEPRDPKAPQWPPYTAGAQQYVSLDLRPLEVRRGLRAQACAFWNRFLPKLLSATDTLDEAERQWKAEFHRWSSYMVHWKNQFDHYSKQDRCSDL
As to the kind of experiment: biochemical. The data set is classed as biochemical. How it is done:
An already published method was used to apply the Ellman’s spectrophotometric assay to the 96-well plate technique. […] Experiments were performed in duplicate in transparent, flat-bottomed polystyrene 96-well microtiter plates, and readings made with Tecan Infinite M1000 Pro instrument.

The conditions of data set [3]: cited from earlier work.
Data set [4] has as its target T3, recombinant wild-type (WT) CAC (Rattus norvegicus, UniProt P97521).
T3 construct: made in house; host or cells: Escherichia coli C0214
T3 sequence (P97521 1-301): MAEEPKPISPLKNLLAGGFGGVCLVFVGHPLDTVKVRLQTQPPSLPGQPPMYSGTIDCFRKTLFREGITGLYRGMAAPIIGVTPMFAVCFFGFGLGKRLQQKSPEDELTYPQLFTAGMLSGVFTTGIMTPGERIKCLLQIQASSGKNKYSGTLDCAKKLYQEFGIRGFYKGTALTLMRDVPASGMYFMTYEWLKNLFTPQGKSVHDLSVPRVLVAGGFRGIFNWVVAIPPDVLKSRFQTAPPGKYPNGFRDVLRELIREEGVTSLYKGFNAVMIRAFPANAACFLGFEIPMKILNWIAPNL
Briefly: Transport activity of purified recombinant WT CAC reconstituted into liposomes. The data set is classed as biochemical. How it is done: To detect the effect of DAN on native CAC, mitochondrial extract was reconstituted into liposomes and transport activity was measured adding various concentrations of compound. In Figure 7A, the dose–response curve is shown. […] Thus, the effect of different concentrations of DAN was tested also on the purified recombinant wild-type (WT) CAC carrier reconstituted into liposomes, measuring the antiport rate of carnitine.
The reducing properties of DAN were studied on the recombinant WT CAC with the protein at different states of oxidation. Figure 8B highlights that when the carrier was incubated during the transport activity with 1 mM dithioerythritol (DTE), 10 µM DAN was able to reduce a major aliquot of oxidized protein (70% recovery of activity compared to the control). […] To identify the cysteines responsible for the activation of the CAC carrier, the proteoliposomes of the WT protein and the mutants C136S, C155S, C136/155S, and C-lessV (C23V/C58V/C89S/C136V/C155V/C283S) were incubated with 10 μM DAN. […] Further evidence of the reducing action of DAN on CAC was obtained by oxidation of the reconstituted WT protein under controlled conditions, i.e., in the presence or absence of hydrogen peroxide and its subsequent degradation by the enzyme catalase. […] The addition of 20 µM DAN led to a significant recovery (about 80%) of the transport function, after treatment of the carrier with H2O2.
The previously constructed pMW7-WTrat CAC recombinant plasmid was used as a template to introduce mutations in the CAC protein using complementary mutagenic primers and the High Fidelity PCR System (Roche, Basel, Switzerland). The PCR products were purified by the QIAEX II Gel Extraction Kit (QIAGEN, Milan, Italy), digested with the restriction enzymes Nde I and Hind III (New England Biolabs, Ipswich, MA, USA) and ligated into the pMW7 cloning vector (given as a gift). All resulting pMW7-rat CAC constructs were verified by DNA sequencing. Except for the desired base changes, all the sequences corresponded to the CAC coding sequence. Bacterial overexpression was obtained using the expression vector of Escherichia coli C0214 (given as a gift). Wild-type and mutants rat CAC inclusion body fractions were isolated from E. coli, solubilized, and purified as previously described.
Mitochondrial rat liver extract (0.3 mg proteins in 3% Triton X-100) containing native CAC was reconstituted into liposomes by removing the detergent from the mixed micelles through a hydrophobic ion-exchange column containing the resin Amberlite XAD-4, as described previously. The reconstitution mixture of mitochondrial or recombinant CAC proteins was composed of protein, 1% Triton X-100, 10 mg of egg yolk phospholipids (L-α-phosphatidylcholine from fresh turkey egg yolk), in the form of sonicated liposomes, 30 mM NaH2PO4 at pH 7.0, 15 mM carnitine, in a final volume of 680 μL. This mixture was passed 15 times, at room temperature, through the same Amberlite column (Pasteur pipette filled with 0.5 g resin) pre-equilibrated with a buffer containing 30 mM NaH2PO4 at pH 7.0 and 15 mM carnitine.
Before starting the transport activity, proteoliposomes were passed through a Sephadex G-75 column (0.7 cm diameter; 15 cm height; Pharmacia, Milan, Italy) to remove the external substrate. The turbid eluate (550 μL) from the Sephadex column was collected and used for transport measurement by the inhibitor-stop method. For uptake measurements, transport at 25 °C was started by adding 0.1 mM [^3H]-carnitine to proteoliposomes and stopped by the addition of 0.1 mM NEM. In control samples, the inhibitor was added together with the labeled substrate at time zero. The experimental values were corrected by subtracting control values. […]

T1 sequence (P05067 672-711 limits assumed): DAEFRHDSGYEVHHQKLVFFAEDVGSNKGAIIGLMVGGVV

`O=C1CN(/N=C/c2ccc(-c3ccc([N+](=O)[O-])cc3)o2)C(O)=N1` [Dantrolene] showed an inhibition at 100 µM in data set [1] of 56%. The concentration for half-maximal inhibition (IC50) in data set [2] was 4.19 ± 0.73 µM. Besides, the hAChE inhibition mechanism result in data set [2] (Michaelis–Menten / Lineweaver–Burk, substrate acetylthiocoline) is “noncomp”. In addition, in data set [2] (fold lower than reference compound galantamine), the “potency of AChE inhibition relative to galantamine” value was “seven-fold lower”. Besides, in data set [2] (substrate acetylthiocoline, mean ± SEM), the Ki was 6.3 ± 0.15 µM. The “concentration found in the cytosolic compartment in vivo” value in data set [3] is 10 µM. In data set [4] (10 μM, average values over time intervals), the “transport activity of WT CAC over time compared to the control” value was “around 160%”. Moreover, the “recovery of activity compared to the control” value in data set [4] (10 µM, carrier incubated with 1 mM DTE) is 70%. The recovery of activity in data set [4] (10 µM, carrier incubated with 50 mM DTE) is reported as 25%. Moreover, in data set [4] (10 μM, proteoliposomes of WT protein), the “increase in transport activity on WT” value was 180%. For the same molecule, in data set [4] (20 µM, after 1 mM H2O2 for 10 min at 37 °C (activity decreased to about 50% without compound)), the “recovery of the transport function after H2O2” value is on record as “about 80%”. The EC50 in data set [4] (after 30 min of incubation, read-out: EC50 of activation of recombinant WT CAC) worked out at 9.3 ± 3.1 µM. For the same molecule, the “concentration for whole activation of the WT protein” value in data set [4] (dose–response curve, 30 min) is “above 50 μM”.

Broadly, the inhibition is the relative decrease from the control value, in per cent. Lower therefore signals little suppression. As usually defined, the IC50 is the concentration needed to halve the response being measured. Usually Ki stands for the equilibrium dissociation constant of an inhibitor or competing ligand from its target. For orientation: EC50 means the concentration giving half of the maximal effect.

The values are drawn from publication PMC6930524, “A Prospective Repurposing of Dantrolene as a Multitarget Agent for Alzheimer’s Disease” (Molecules, 2019).
